Legend:
CEM/VLB tumor cell line = assay: MTT cytotoxicity / cell proliferation assay; format: cell-based, human; conditions: 24 hours, concentrations as high as 1000 μg/ml
Description: (§1) FIGS. 4A-4B show cytotoxic analysis of RR1 in normal lymphocytes (a) and tumor cell lines (b). Cells (10^6) were treated with RR1 for 24 hours and cytotoxicity assay performed using MTT cell proliferation kit (Roche Biochemicals). The percentage of surviving cells over control was plotted against RR1 concentrations.
(§2) Immunostimulating Properties. To measure the immune stimulatory property of RR1, the activation of the different subsets of lymphocytes, syntheses of cytokines such as interleukin (IL)-1β, IL-2, IL-4, IL-6, IL-10, IL-12 p70 and p40, IL-18, interferon (IFN)-α and γ, Tumor Necrosis factor (TNF)-α and β, monocyte chemo-attractant protein (MCP)-1, synthesis of nitric oxide (NO), and the extent of oxidative stress elicited in human lymphocytes was analyzed. Normal lymphocytes were isolated by the histopaque density gradient method from fresh blood drawn from healthy volunteers and utilized for various assays. Human leukemic (CEM) and multidrug resistant (CEM/VLB) cell lines were grown in RPMI medium supplemented with 10% fetal bovine serum and antibiotics in 5% CO2 incubator at 37° C.

normal lymphocytes = assay: MTT cytotoxicity / cell proliferation assay; format: cell-based, human; conditions: 24 hours, concentrations as high as 1000 μg/ml
Description: as §1, §2

CEM tumor cell line = assay: MTT cytotoxicity / cell proliferation assay; format: cell-based, human; conditions: 24 hours, concentrations as high as 1000 μg/ml
Description: as §1, §2

[1] = system: normal lymphocytes (NK, T and B cells); assay: Activation of lymphocyte subsets, flow cytometry (CD69); format: cell-based, human
Description: Normal lymphocytes were treated with RR1 (0-100 μg/ml) for 24 hours at 37° C. in a CO2 incubator. The cells were stained with a panel of cell specific antibodies conjugated with different fluorochromes: CD3-FITC, CD16/56-PE, CD19-ECD, CD69-PC5 or CD8-FITC, CD4-PE, CD3-ECD, CD69-ECD. The stained cells were analyzed in a Coulter Elite flow cytometer in a 4-color assay. ***p<0.001.
Activation of Lymphocytes. Normal lymphocytes (10^6/ml) were treated with 0-100 μg of RR1 for 24 hours in a CO2 incubator maintained at 37° C. in RPMI medium. The cells were then stained with specific fluorochrome-conjugated monoclonal antibodies for 30 minutes at room temperature and analyzed in a Coulter Elite Flow Cytometer by four and five color immunotyping assay protocol of Alamo and Melnick (Alamo, A. L. and S. J. Melnick Cytometry, 2000, 42:363-370) and the percentage of activation of subsets of lymphocytes such as NK, T and B cells were calculated.

RAW 264.7 cells = assay: RR1-induced TNF-α synthesis with and without CAPE, ELISA; format: cell-based, mouse; conditions: RAW 264.7, RR1 0-1000 μg/ml
Description: The cells were pre-incubated with 10 μg/ml CAPE for 1 hour in 0.5% FBS containing DMEM medium and replaced with medium containing RR1 at varying concentrations for 4 hour at 37° C. The medium was analyzed for secreted TNF-α using ELISA protocol.
RR1-induced TNF-α synthesis. RAW 264.7 cells (0.5×10^6/ml) were plated on 6-well plates with DMEM medium containing 0.5% FBS (starvation). Once the cells were attached, medium was replaced, RR1 was added at 0, 100, 500 and 1000 μg/ml doses and incubated at 37° C. for 24 hours. The medium was analyzed for the secreted TNF-α using the ELISA kit (BD BIOSCIENCES kit, San Jose, Calif.) based on the manufacturer's protocol.
To determine the effect of NF-κB inhibitor CAPE on TNF-α synthesis, RAW 264.7 cells were treated with 10 μg/ml of CAPE for 1 hour at 37° C. followed by treatment with RR1 (0-1000 μg/ml) overnight in the incubator. The secreted TNF-α in the medium was analyzed using ELISA (BD BIOSCIENCES, San Jose, Calif.).

## (1,4)-α-D-glucan [RR1]
CEM/VLB tumor cell line
  direct cytotoxic or cell proliferating effect (MTT): no direct cytotoxic or cell proliferating effect
Normal lymphocytes
  direct cytotoxic or cell proliferating effect (MTT): no direct cytotoxic or cell proliferating effect
CEM tumor cell line
  direct cytotoxic or cell proliferating effect (MTT): no direct cytotoxic or cell proliferating effect
[1]; 100 μg/ml RR1
  fold activation of NK cells: > 3 fold
[1]; 100 μg/ml RR1, 24 hours
  activation of B cells: 39%
  activation of NK cells: 331%
  activation of T cells: 102%
RAW 264.7 cells
  synthesis of TNF-α: dose-dependent increase
